Measurements published in patent publication US7371571B2, “Recombinant mycobacteria overexpressing D-alanine ligase gene and uses therefore” (priority 2002, dated 2008).
Values after ≈ are worked out from the molar mass of the structure shown. Values joined by “and” are separate entries in the source; they are usually repeats but may differ in a detail not shown here. Equal values may be shown once. “Also recorded” adds a separate entry of the source. Read-outs that look alike come from different tables or passages of the source.

What was measured:
M. smegmatis mc^2155 [1] = assay: MIC by microdilution method; type: cell-based, Mycobacterium smegmatis
M. smegmatis GPM2 = assay: MIC by microdilution method; type: cell-based, Mycobacterium smegmatis; conditions: Mycolicibacterium smegmatis
[2] = test system: M. smegmatis GPM14 (overproducing Alr); assay: MIC by microdilution method; type: cell-based, Mycobacterium smegmatis; conditions: for MIC: Mycolicibacterium smegmatis, 48 h
Method: (§1) MICs were determined by a microdilution method described previously (Takiff et al., 1996) with minor modifications. Briefly, M. smegmatis cells were grown in M-ADC-TW to mid-exponential phase (optical density at 600 nm, 0.6 to 1.0). Approximately 10^5 CFU in 0.1 ml were inoculated in triplicate onto 96-well microplates containing serial twofold dilutions of inhibitory compounds. Plates were incubated at 37° C. and examined daily. The MIC was defined as the minimal concentration of the drug or inhibitor that prevented visible bacterial growth after 48 h. Each MIC represents the consistent result from at least three independent cultures. Amikacin, DCS, βCDA, ethambutol, and vancomycin (all from Sigma) were prepared in sterile deionized water. Rifabutin (Amersham Pharmacia) was prepared in dimethyl sulfoxide (Fisher Scientific, St. Louis, Mo.). All further dilutions of each antibiotic were prepared in growth medium. Inhibition of colony formation by DCS was evaluated as described previously in Caceres et al., (1997), which is incorporated herein by reference. Appropriate dilutions of exponentially growing M. smegmatis cells were plated onto agar containing 0 to 1,200 μg of DCS ml^−1. Colonies were counted after 5 days of incubation at 37° C. Statistical analysis was conducted using the SAS general linear model procedure (SAS Institute, Cary, N.C.).

[3] = test system: M. smegmatis GPM259 (overproducing Ddl); assay: MIC by microdilution method; type: cell-based, Mycobacterium smegmatis; conditions: for MIC: Mycolicibacterium smegmatis, 48 h
Method: as §1

[4] = test system: M. smegmatis GPM260 (overproducing both Alr and Ddl); assay: MIC by microdilution method; type: cell-based, Mycobacterium smegmatis; conditions: for MIC: Mycolicibacterium smegmatis, M-ADC-TW, 48 h; for MIC / susceptibility of GPM260 compared with parent strain GPM14: strain GPM260
Method: as §1

[5] = test system: M. smegmatis GPM265 (overproducing M. tuberculosis Ddl); assay: microbe, parasite or virus in culture; type: cell-based, Mycobacterium smegmatis; conditions: for MIC: Mycolicibacterium smegmatis, 48 h
M. smegmatis strains [6] = assay: Drug susceptibility compared across strains; type: cell-based, Mycobacterium smegmatis; conditions: mc^2155, GPM259, GPM265, GPM14
M. smegmatis Ddl = M. smegmatis Ddl (Mycolicibacterium smegmatis, UniProt Q9ZGN0); type: biochemical, Mycobacterium smegmatis
Sequence of M. smegmatis Ddl (Q9ZGN0 whole entry): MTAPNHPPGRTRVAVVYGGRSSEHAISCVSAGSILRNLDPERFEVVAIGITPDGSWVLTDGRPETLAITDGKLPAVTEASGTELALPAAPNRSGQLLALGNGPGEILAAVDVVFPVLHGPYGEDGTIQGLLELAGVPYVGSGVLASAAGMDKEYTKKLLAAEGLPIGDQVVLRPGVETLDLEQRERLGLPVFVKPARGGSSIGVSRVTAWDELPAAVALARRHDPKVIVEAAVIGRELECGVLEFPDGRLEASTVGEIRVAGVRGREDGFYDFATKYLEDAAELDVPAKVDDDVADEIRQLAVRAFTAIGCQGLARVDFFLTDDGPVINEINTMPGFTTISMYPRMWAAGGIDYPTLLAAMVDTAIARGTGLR

M. tuberculosis Ddl = biological target: T1, M. tuberculosis Ddl (Mycobacterium tuberculosis, UniProt P9WP31); type: biochemical
T1 sequence (P9WP31 1-373): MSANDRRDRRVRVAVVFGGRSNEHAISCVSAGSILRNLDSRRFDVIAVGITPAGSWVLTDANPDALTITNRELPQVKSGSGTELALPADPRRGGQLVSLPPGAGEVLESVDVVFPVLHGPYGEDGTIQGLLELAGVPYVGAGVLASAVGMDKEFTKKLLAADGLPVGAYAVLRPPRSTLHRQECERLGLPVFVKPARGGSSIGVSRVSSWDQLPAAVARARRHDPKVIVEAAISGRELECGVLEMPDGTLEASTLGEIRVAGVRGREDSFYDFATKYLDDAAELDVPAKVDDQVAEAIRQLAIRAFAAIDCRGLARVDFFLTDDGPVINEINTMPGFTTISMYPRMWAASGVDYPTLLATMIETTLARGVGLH

M. smegmatis strains [7] = assay: Inhibition of colony formation on agar; type: cell-based, Mycobacterium smegmatis; conditions: agar with 0 to 1,200 μg of DCS ml^−1, 5 days
Method: as §1

Alr = conditions: Streptococcus faecalis purified Alr; cited from earlier work
Ddl = biological target: T2, Ddl (UniProt Q47758); conditions: Streptococcus faecalis purified Ddl; cited from earlier work
T2 sequence (Q47758 1-348): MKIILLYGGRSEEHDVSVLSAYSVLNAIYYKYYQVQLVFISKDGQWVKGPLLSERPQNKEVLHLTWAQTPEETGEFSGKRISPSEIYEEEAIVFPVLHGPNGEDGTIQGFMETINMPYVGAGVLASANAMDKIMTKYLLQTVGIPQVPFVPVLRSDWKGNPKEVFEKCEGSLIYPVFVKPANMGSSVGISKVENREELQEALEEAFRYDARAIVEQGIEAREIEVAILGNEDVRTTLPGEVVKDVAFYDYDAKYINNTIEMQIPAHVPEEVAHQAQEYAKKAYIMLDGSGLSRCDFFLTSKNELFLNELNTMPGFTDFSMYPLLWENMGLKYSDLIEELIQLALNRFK

M. smegmatis mc^2155 [8] = assay: Intracellular alanine pools by reverse-phase HPLC; conditions: 75 μg ml^−1 DCS, 2 h
Method: (§2) M. smegmatis cells were grown in minimal medium until exponential phase and split into two subcultures, and DCS was added to a final concentration of 75 μg ml^−1 to one of the subcultures. After 2 h of incubation, cells were harvested at 4° C. by centrifugation, washed twice with ice-cold double-distilled water, and concentrated 50-fold. Cells were sonicated in a salt-ice-water bath with a Vibra-Cell model VC600 sonicator (Sonic and Materials, Inc., Danbury, Conn.) for 10 min at 80% power output and 50% duty cycle. The lysate was centrifuged at 4° C. for 30 min at 30,000×g to remove bacterial debris. Protein was removed from the supernatant by serial passages through YM-10 and YM-3 Centricon concentrators (Millipore Corp., Bedford, Mass.). Determination of the abundance of individual amino acids was performed at the Amino Acid Geochronology Laboratory of Northern Arizona University (Flagstaff, Ariz.) by a reverse-phase high-performance liquid chromatography (HPLC) procedure described previously (Kaufman and Manley, 1998). This procedure is able to detect nine pairs of L- and D-amino acids in the subpicomole range. […] Thus, the abundance of each amino acid was calculated as the area under the corresponding peak and expressed relative to this pool.

M. smegmatis GPM14 = assay: Intracellular alanine pools by reverse-phase HPLC; conditions: 75 μg ml^−1 DCS, 2 h
Method: as §2

M. smegmatis GPM259 = assay: Intracellular alanine pools by reverse-phase HPLC; conditions: 75 μg ml^−1 DCS, 2 h
Method: as §2

M. smegmatis GPM260 = assay: Intracellular alanine pools by reverse-phase HPLC; conditions: 75 μg ml^−1 DCS, 2 h
Method: as §2

## N[C@H](CCl)C(=O)O [βCDA, β-chloro-D-alanine]
M. smegmatis mc^2155 [1]; Mycolicibacterium smegmatis, MC^2155, 48 h
  MIC: 25 µg/mL (≈ 202 µM)
M. smegmatis GPM2; GPM2, 48 h
  MIC: 25 µg/mL (≈ 202 µM)
[2]
  MIC: 100 µg/mL (≈ 809 µM)
[2]; strain GPM14
  MIC relative to those for strains with wild-type levels of Alr: fourfold higher
[3]; strain GPM259, M-ADC-TW, read-out: MIC
  MIC: 25 µg/mL (≈ 202 µM)
[4]
  MIC: 100 µg/mL (≈ 809 µM)
  susceptibility of GPM260 compared with parent strain GPM14: identical
[5]
  MIC: 25 µg/mL (≈ 202 µM)

## CC[C@@H](CO)NCCN[C@@H](CC)CO [ethambutol]
[4]
  susceptibility of GPM260 compared with parent strain GPM14: identical
M. smegmatis strains [6]
  susceptibilities of strains overproducing Alr and/or Ddl compared with wild type: identical

## CN[C@H](CC(C)C)C(=O)N[C@H]1C(=O)N[C@@H](CC(N)=O)C(=O)N[C@H]2C(=O)N[C@H]3C(=O)N[C@H](C(=O)N[C@H](C(=O)O)c4cc(O)cc(O)c4-c4cc3ccc4O)[C@H](O)c3ccc(c(Cl)c3)Oc3cc2cc(c3O[C@@H]2O[C@H](CO)[C@@H](O)[C@H](O)[C@H]2O[C@H]2C[C@](C)(N)[C@H](O)[C@H](C)O2)Oc2ccc(cc2Cl)[C@H]1O [vancomycin]
[4]
  susceptibility of GPM260 compared with parent strain GPM14: identical
M. smegmatis strains [6]
  susceptibilities of strains overproducing Alr and/or Ddl compared with wild type: does not have an effect on the susceptibility; also recorded: identical

## CO[C@H]1/C=C/O[C@@]2(C)Oc3c(C)c(O)c4c(c3C2=O)C2=NC3(CCN(CC(C)C)CC3)NC2=C(NC(=O)/C(C)=C\C=C\[C@H](C)[C@H](O)[C@@H](C)[C@@H](O)[C@@H](C)[C@H](OC(C)=O)[C@@H]1C)C4=O [rifabutin]
[4]
  susceptibility of GPM260 compared with parent strain GPM14: identical
M. smegmatis strains [6]
  susceptibilities of strains overproducing Alr and/or Ddl compared with wild type: identical

## NCC[C@H](O)C(=O)N[C@@H]1C[C@H](N)[C@@H](O[C@H]2O[C@H](CN)[C@@H](O)[C@H](O)[C@H]2O)[C@H](O)[C@H]1O[C@H]1O[C@H](CO)[C@@H](O)[C@H](N)[C@H]1O [amikacin]
[4]
  susceptibility of GPM260 compared with parent strain GPM14: identical
M. smegmatis strains [6]
  susceptibilities of strains overproducing Alr and/or Ddl compared with wild type: identical

## NC1CONC1=O (stereo not drawn) [DCS, 4-amino-3-isoxazolidinone]
M. smegmatis mc^2155 [1]; Mycolicibacterium smegmatis, strain mc^2155, M-ADC-TW, 48 h, read-out: MIC
  MIC: 75 µg/mL (≈ 735 µM)
M. smegmatis mc^2155 [1]; strain mc^2155, M-ADC-TW, 48 h
  MIC: 75.0 µg/mL (≈ 735 µM)
M. smegmatis GPM2; strain GPM2, M-ADC-TW, 48 h, read-out: MIC
  MIC: 75 µg/mL (≈ 735 µM)
[2]
  MIC: 300 µg/mL (≈ 2940 µM)
[3]
  MIC: 150 µg/mL (≈ 1470 µM)
[3]; strain GPM259
  MIC relative to that for mc^2155: twofold greater
[4]
  MIC: 600 µg/mL (≈ 5880 µM)
[4]; strain overexpressing both the alr and ddl genes
  level of resistance: eightfold-higher
[5]
  MIC relative to that for mc^2155: twofold greater
  MIC: 150 µg/mL (≈ 1470 µM)
M. smegmatis Ddl
  Ddl activity inhibited: 10 to 15%
  Ddl enzyme activity inhibited: Approximately 50%
  inhibition of Ddl enzyme: inhibited by DCS in a concentration-dependent manner
M. tuberculosis Ddl
  inhibition of Ddl enzyme: inhibited by DCS in a concentration-dependent manner
  percentage of inhibition higher than in mc^2155 and GPM259 extracts: approximately 10%
M. smegmatis strains [7]
  resistance of GPM259 and GPM265 on solid agar: more resistant to DCS than the wild-type mc^2155 but less resistant than the Alr-overproducing strain GPM14
Alr
  Ki: 20 µM
Ddl
  Ki: 900 µM
M. smegmatis mc^2155 [8]
  excess of L- over D-alanine: eightfold
M. smegmatis mc^2155 [8]; versus untreated
  increase of L-alanine-to-D-alanine molar ratio: 3.5 fold
M. smegmatis GPM14
  excess of L- over D-alanine: three-fold
M. smegmatis GPM259
  excess of L-alanine: 18- to 20 fold and ~20 fold
M. smegmatis GPM260
  excess of L-alanine: 18- to 20 fold and ~20 fold
